For 17 compounds, T/C results are on record in PubChem BioAssay AID220 (DTP/NCI, 2004).

This assay deals with CD8F1 mice, subcutaneous mammary adenocarcinoma, T/C%. The assay can be described thus: NCI In Vivo Anticancer Drug Screen. Data for tumor model Mammary Adenocarcinoma CD8F1 (subcutaneous) in CD8F1. The note with it: higher = larger tumour. In a few lines:
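Compound-treated versus vehicle-treated mice with transplantable tumors; survival or tumor size compared as T/C.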

Setting [1] is: endpoint: median tumor weight (est.), dose: 25.0 mg/kg/injection, schedule: Q07DX005 (ip), vehicle: saline with Tween-80.
Setting [2] is: endpoint: median tumor weight (est.), dose: 50.0 mg/kg/injection, schedule: Q07DX005 (ip), vehicle: saline with Tween-80.
The mark [3] stands for this setting: endpoint: median tumor weight change, dose: 125.0 mg/kg/injection, schedule: Q01DX001 (ip), vehicle: saline with Tween-80.
Setting [4] is: endpoint: median tumor weight change, dose: 250.0 mg/kg/injection, schedule: Q01DX001 (ip), vehicle: saline with Tween-80.
Where [5] appears, read: endpoint: median tumor weight change, dose: 500.0 mg/kg/injection, schedule: Q01DX001 (ip), vehicle: saline with Tween-80.
Setting [6] is: endpoint: median tumor weight change, dose: 1000.0 mg/kg/injection, schedule: Q01DX001 (ip), vehicle: saline with Tween-80.
Setting [7] is: endpoint: median tumor weight (est.), dose: 100.0 mg/kg/injection, schedule: Q07DX005 (ip), vehicle: saline with Tween-80.
The mark [8] stands for this setting: endpoint: median tumor weight (est.), dose: 50.0 mg/kg/injection, schedule: Q07DX005 (ip), vehicle: saline.
The mark [9] stands for this setting: endpoint: median tumor weight (est.), dose: 6.25 mg/kg/injection, schedule: Q07DX005 (ip), vehicle: saline.
The mark [10] stands for this setting: endpoint: median tumor weight (est.), dose: 12.5 mg/kg/injection, schedule: Q07DX005 (ip), vehicle: saline.
[11] abbreviates: endpoint: median tumor weight change, dose: 62.5 mg/kg/injection, schedule: Q01DX001 (ip), vehicle: Klucel (hydroxypropylcellulose) (HPC).
[12] abbreviates: endpoint: median tumor weight change, dose: 125.0 mg/kg/injection, schedule: Q01DX001 (ip), vehicle: Klucel (hydroxypropylcellulose) (HPC).
[13] abbreviates: endpoint: median tumor weight change, dose: 250.0 mg/kg/injection, schedule: Q01DX001 (ip), vehicle: Klucel (hydroxypropylcellulose) (HPC).

Each structure is given as a SMILES string. Several values for one entry are separate records, joined by “and”; a condition that tells them apart may be missing. Equal entries are not always repeated. Results filed as inconclusive are left out.

`C[C@]12CC[C@@H]3c4ccc(OC(=O)Cc5ccc(N(CCCl)CCCl)cc5)cc4CC[C@H]3[C@@H]1CC[C@@H]2OC(=O)Cc1ccc(N(CCCl)CCCl)cc1`: the T/C was 54 % of control (endpoint: mean tumor weight, dose: 25.0 mg/kg/injection, schedule: Q07DX005 (ip), vehicle: saline with Tween-80); 47 % of control (endpoint: mean tumor weight, dose: 50.0 mg/kg/injection, schedule: Q07DX005 (ip), vehicle: saline with Tween-80); 45 % of control (endpoint: mean tumor weight, dose: 100.0 mg/kg/injection, schedule: Q07DX005 (ip), vehicle: saline with Tween-80); 38 % of control (endpoint: mean tumor weight, dose: 200.0 mg/kg/injection, schedule: Q07DX005 (ip), vehicle: saline with Tween-80); 65 % of control (endpoint: mean tumor weight, dose: 400.0 mg/kg/injection, schedule: Q07DX005 (ip), vehicle: saline with Tween-80); 79 % of control and 93 % of control under setting [1]. In addition, the T/C was 45 % of control and 51 % of control under setting [2]; 10 % of control (endpoint: median tumor weight (est.), dose: 400.0 mg/kg/injection, schedule: Q07DX005 (ip), vehicle: saline with Tween-80).
On to `Oc1c(Cl)cc(Cl)cc1C1N2CCCCC2C2c3cccn3-c3ccccc3N21` (stereo not drawn), for which the T/C reads like this: under setting [3], 69 % of control; under setting [4], 85 % of control; under setting [5], 58 % of control; under setting [6], 68 % of control; (endpoint: median tumor weight change, dose: 2000.0 mg/kg/injection, schedule: Q01DX001 (ip), vehicle: saline with Tween-80) 79 % of control.
In the case of `O=C1SC(c2ccccc2)=S=C1c1ccccc1`, the T/C was 67 % of control under setting [3], 100 % of control under setting [4], 60 % of control under setting [5] and 56 % of control under setting [6].
With `CCC1=C2C(=O)c3ccccc3C2=C(C)S(=O)(=O)O1`, the T/C is, setting by setting: (endpoint: median tumor weight change, dose: 31.25 mg/kg/injection, schedule: Q01DX001 (ip), vehicle: saline with Tween-80) 120 % of control; (endpoint: median tumor weight change, dose: 62.5 mg/kg/injection, schedule: Q01DX001 (ip), vehicle: saline with Tween-80) 185 % of control; under setting [3], 116 % of control.
As to `CO[C@H]1C[C@@H]2CC[C@@H](C)[C@@](O)(O2)C(=O)C(=O)N2CCCC[C@H]2C(=O)O[C@H]([C@H](C)C[C@@H]2CC[C@@H](O)[C@H](OC)C2)CC(=O)[C@H](C)C=C(C)[C@@H](O)[C@@H](OC)C(=O)[C@H](C)C[C@H](C)/C=C/C=C/C=C1C`, the T/C runs as follows: (endpoint: median tumor weight (est.), dose: 3.12 mg/kg/injection, schedule: Q07DX005 (ip), vehicle: clinical formulation) 48 % of control; (endpoint: median tumor weight (est.), dose: 3.12 mg/kg/injection, schedule: Q07DX005 (ip), vehicle: saline with Tween-80) 54 % of control; (endpoint: median tumor weight (est.), dose: 6.25 mg/kg/injection, schedule: Q07DX005 (ip), vehicle: clinical formulation) 58 % of control; (endpoint: median tumor weight (est.), dose: 6.25 mg/kg/injection, schedule: Q07DX005 (ip), vehicle: saline with Tween-80) 49 % of control; (endpoint: median tumor weight (est.), dose: 12.5 mg/kg/injection, schedule: Q07DX005 (ip), vehicle: clinical formulation) 77 % of control; (endpoint: median tumor weight (est.), dose: 12.5 mg/kg/injection, schedule: Q07DX005 (ip), vehicle: saline with Tween-80) 29 % of control and 40 % of control. Also, the T/C is 60 % of control (endpoint: median tumor weight (est.), dose: 25.0 mg/kg/injection, schedule: Q07DX005 (ip), vehicle: clinical formulation); 25 % of control and 31 % of control under setting [1]; 50 % of control (endpoint: median tumor weight (est.), dose: 50.0 mg/kg/injection, schedule: Q07DX005 (ip), vehicle: clinical formulation); 22 % of control and 23 % of control under setting [2]; 63 % of control (endpoint: median tumor weight (est.), dose: 100.0 mg/kg/injection, schedule: Q07DX005 (ip), vehicle: clinical formulation); 14 % of control and 20 % of control under setting [7]. Also, the T/C is 22 % of control (endpoint: median tumor weight (est.), dose: 200.0 mg/kg/injection, schedule: Q07DX005 (ip), vehicle: clinical formulation); 10 % of control and 23 % of control (endpoint: median tumor weight (est.), dose: 200.0 mg/kg/injection, schedule: Q07DX005 (ip), vehicle: saline with Tween-80).
Take `C1CN1c1nc(N2CC2)nc(N2CC2)n1`: the T/C was 64 % of control and 86 % of control (endpoint: median tumor weight (est.), dose: 0.12 mg/kg/injection, schedule: Q07DX005 (ip), vehicle: saline); 23 % of control and 28 % of control (endpoint: median tumor weight (est.), dose: 0.25 mg/kg/injection, schedule: Q07DX005 (ip), vehicle: saline); 6 % of control and 10 % of control (endpoint: median tumor weight (est.), dose: 0.5 mg/kg/injection, schedule: Q07DX005 (ip), vehicle: saline); 1 % of control (endpoint: median tumor weight (est.), dose: 1.0 mg/kg/injection, schedule: Q07DX005 (ip), vehicle: saline); 18 % of control (endpoint: median tumor weight change, dose: 0.62 mg/kg/injection, schedule: Q01DX001 (ip), vehicle: suspension in saline); -17 % of control and -41 % of control (endpoint: median tumor weight change, dose: 2.5 mg/kg/injection, schedule: Q01DX001 (ip), vehicle: suspension in saline).
`C/C=C/c1cc2n(c1)C(=O)c1cc(OC3OC(C)C(NC)C(C)(O)C3O)c(C)c(O)c1NC2O` (stereo not drawn): for the setting “endpoint: median tumor weight (est.), dose: 1.0 micrograms/kg/injection, schedule: Q07DX005 (ip), vehicle: saline”, the T/C was 60 % of control.
On to `NCCCC(N)(C(=O)O)C(F)F` (stereo not drawn), for which the T/C (endpoint: median tumor weight change, dose: 125.0 mg/kg/injection, schedule: Q01DX001 (ip), vehicle: distilled water + alcohol) is 29 % of control; the T/C (endpoint: median tumor weight change, dose: 250.0 mg/kg/injection, schedule: Q01DX001 (ip), vehicle: distilled water + alcohol) is 51 % of control; the T/C (endpoint: median tumor weight change, dose: 500.0 mg/kg/injection, schedule: Q01DX001 (ip), vehicle: distilled water + alcohol) was 64 % of control; the T/C (endpoint: median tumor weight change, dose: 1000.0 mg/kg/injection, schedule: Q01DX001 (ip), vehicle: distilled water + alcohol) is 36 % of control; the T/C (endpoint: median tumor weight change, dose: 2000.0 mg/kg/injection, schedule: Q01DX001 (ip), vehicle: distilled water + alcohol) was 72 % of control.
With `O=C(O)O`, the T/C is 104 % of control under setting [8]; 72 % of control and 55 % of control (endpoint: median tumor weight (est.), dose: 400.0 mg/kg/injection, schedule: Q07DX005 (ip), vehicle: saline).
As to `[N-]=[N+]=[N-]`, the T/C by setting is: (endpoint: median tumor weight change, dose: 3.0 mg/kg/injection, schedule: Q01DX001 (ip), vehicle: saline) 72 % of control; (endpoint: median tumor weight change, dose: 6.0 mg/kg/injection, schedule: Q01DX001 (ip), vehicle: saline) 104 % of control; (endpoint: median tumor weight change, dose: 12.0 mg/kg/injection, schedule: Q01DX001 (ip), vehicle: saline) 122 % of control; (endpoint: median tumor weight change, dose: 24.0 mg/kg/injection, schedule: Q01DX001 (ip), vehicle: saline) 66 % of control.
Turning to `CC[N](CC)[Ge]([CH2]C)[CH2]C.CC[N](CC)[Ge]([CH2]C)[CH2]C`, the T/C is, setting by setting: under setting [9], 116 % of control; under setting [10], 74 % of control; (endpoint: median tumor weight (est.), dose: 25.0 mg/kg/injection, schedule: Q07DX005 (ip), vehicle: saline) 124 % of control; under setting [8], 94 % of control.
As for `Oc1c(Cl)cc(Cl)cc1C=NCCSc1ccc(Cl)cc1`, the T/C under setting [11] was 99 % of control and 100 % of control; the T/C under setting [12] was 89 % of control and 104 % of control; the T/C under setting [13] was 87 % of control and 103 % of control.
For the compound `C[n+]1c(-c2cccc3ccccc23)c2cc(N)ccc2c2ccccc21`, the T/C (endpoint: median tumor weight (est.), dose: 3.12 mg/kg/injection, schedule: Q07DX005 (ip), vehicle: saline) was 71 % of control; the T/C under setting [9] was 99 % of control; the T/C under setting [10] is 49 % of control.
Turning to `COC(=O)Nc1cn2cc(C(=O)c3cccs3)ccc2n1`, the T/C runs as follows: under setting [11], 99 % of control; under setting [12], 71 % of control; under setting [13], 69 % of control.
With `CS(=O)(=O)CS(=O)(=O)OCCCl`, the T/C by setting is: (endpoint: median tumor weight change, dose: 125.0 mg/kg/injection, schedule: Q01DX001 (ip), vehicle: suspension in saline) 56 % of control; (endpoint: median tumor weight change, dose: 250.0 mg/kg/injection, schedule: Q01DX001 (ip), vehicle: suspension in saline) 68 % of control.
Take `O=C1CC2(C(=O)N1CN1CCOCC1)c1ccccc1-c1ccccc12`: the T/C was 167 % of control under setting [13]; 102 % of control (endpoint: median tumor weight change, dose: 500.0 mg/kg/injection, schedule: Q01DX001 (ip), vehicle: Klucel (hydroxypropylcellulose) (HPC)); 40 % of control (endpoint: median tumor weight change, dose: 1000.0 mg/kg/injection, schedule: Q01DX001 (ip), vehicle: Klucel (hydroxypropylcellulose) (HPC)).
As to `CCOC(C)C(/C=N/NC(N)=S)=NNC(N)=S` (stereo not drawn), the T/C is 87 % of control and 109 % of control under setting [1]; 85 % of control and 88 % of control under setting [2]; 78 % of control and 96 % of control under setting [7].
